Source: PubChem BioAssay AID328 (DTP/NCI, 2004)
Several values for one entry are separate records, joined by “and”; a condition that tells them apart may be missing. Equal entries are not always repeated. Inconclusive results and toxic doses are left out. Rule for the calls: active = survival T/C of 150% or more; inactive = T/C below 125% in these data.

Test system: BDF1 mice, P388 leukemia ip, median survival T/C
Assay: NCI In Vivo Anticancer Drug Screen. Data for tumor model P388 Leukemia (intraperitoneal) in B6D2F1 (BDF1) mice
Details: endpoint: median survival time, higher = longer survival
How it was run: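 In tumour-bearing mice, survival after compound treatment is set against the vehicle group and given as a quotient.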

[1] = dose: 25.0 mg/kg/injection, schedule: Q01DX009 (ip), vehicle: Klucel (hydroxypropylcellulose) (HPC)
[2] = dose: 100.0 mg/kg/injection, schedule: Q01DX009 (ip), vehicle: Klucel (hydroxypropylcellulose) (HPC)
[3] = dose: 200.0 mg/kg/injection, schedule: Q01DX009 (ip), vehicle: Klucel (hydroxypropylcellulose) (HPC)
[4] = dose: 100.0 mg/kg/injection, schedule: Q01DX009 (ip), vehicle: saline with Tween-80
[5] = dose: 200.0 mg/kg/injection, schedule: Q04DX003 (ip), vehicle: saline with Tween-80
[6] = dose: 400.0 mg/kg/injection, schedule: Q04DX003 (ip), vehicle: saline with Tween-80
[7] = dose: 25.0 mg/kg/injection, schedule: Q01DX009 (ip), vehicle: saline with Tween-80
[8] = dose: 50.0 mg/kg/injection, schedule: Q01DX009 (ip), vehicle: saline with Tween-80
[9] = dose: 100.0 mg/kg/injection, schedule: Q04DX003 (ip), vehicle: Klucel (hydroxypropylcellulose) (HPC)
[10] = dose: 200.0 mg/kg/injection, schedule: Q04DX003 (ip), vehicle: Klucel (hydroxypropylcellulose) (HPC)
[11] = dose: 50.0 mg/kg/injection, schedule: Q01DX005 (ip), vehicle: saline
[12] = dose: 6.25 mg/kg/injection, schedule: Q01DX009 (ip), vehicle: saline
[13] = dose: 6.25 mg/kg/injection, schedule: Q04DX003 (ip), vehicle: saline
[14] = dose: 400.0 mg/kg/injection, schedule: Q04DX003 (ip), vehicle: Klucel (hydroxypropylcellulose) (HPC)
[15] = dose: 100.0 mg/kg/injection, schedule: Q04DX002 (ip), vehicle: saline with Tween-80
[16] = dose: 200.0 mg/kg/injection, schedule: Q04DX002 (ip), vehicle: saline with Tween-80
[17] = dose: 400.0 mg/kg/injection, schedule: Q04DX002 (ip), vehicle: saline with Tween-80
[18] = dose: 100.0 mg/kg/injection, schedule: Q04DX003 (ip), vehicle: saline

Measured: T/C

CCO/C=C1\SC(=S)N(c2ccccc2OC)C1=O
inactive: [1] 100 % of control | dose: 50.0 mg/kg/injection, schedule: Q01DX009 (ip), vehicle: Klucel (hydroxypropylcellulose) (HPC) 112 % of control | dose: 88.0 mg/kg/injection, schedule: Q01DX009 (ip), vehicle: Klucel (hydroxypropylcellulose) (HPC) 103 % of control | dose: 88.0 mg/kg/injection, schedule: Q01DX009 (ip), vehicle: saline with Tween-80 122 % of control | [2] 94 % of control | dose: 132.0 mg/kg/injection, schedule: Q01DX009 (ip), vehicle: Klucel (hydroxypropylcellulose) (HPC) 103 % of control | [3] 94 % of control and 123 % of control | dose: 300.0 mg/kg/injection, schedule: Q01DX009 (ip), vehicle: Klucel (hydroxypropylcellulose) (HPC) 112 % of control

Clc1ccc2c(c1)C(Br)c1cc(Cl)cc(Cl)c1-2 (stereo unspecified)
inactive: [4] 108 % of control | dose: 200.0 mg/kg/injection, schedule: Q01DX009 (ip), vehicle: saline with Tween-80 87 % of control | [5] 87 % of control | [6] 87 % of control

COc1ccc2[nH]c3c(C)c4cc[n+](CCCCCCCC[n+]5ccc6c(C)c7[nH]c8ccc(OC)cc8c7c(C)c6c5)cc4c(C)c3c2c1
inactive: dose: 6.25 mg/kg/injection, schedule: Q04DX003 (ip), vehicle: other 121 % of control

O=C1/C(=C/c2ccc(Cl)cc2Cl)CCC/C1=C\c1ccc(Cl)cc1Cl
inactive: [7] 88 % of control | [8] 100 % of control | [4] 88 % of control

Cc1cc(=O)[nH]c(N/N=C2/CCCCC2C)n1 (stereo unspecified)
inactive: dose: 8.0 mg/kg/injection, schedule: Q01DX009 (ip), vehicle: Klucel (hydroxypropylcellulose) (HPC) 107 % of control | dose: 16.0 mg/kg/injection, schedule: Q01DX009 (ip), vehicle: Klucel (hydroxypropylcellulose) (HPC) 107 % of control | dose: 33.0 mg/kg/injection, schedule: Q01DX009 (ip), vehicle: Klucel (hydroxypropylcellulose) (HPC) 100 % of control | [2] 100 % of control | [9] 109 % of control | [10] 95 % of control

CSP12(OCCO1)OCCO2
inactive: [11] 94 % of control | dose: 100.0 mg/kg/injection, schedule: Q01DX005 (ip), vehicle: saline 94 % of control | dose: 200.0 mg/kg/injection, schedule: Q01DX005 (ip), vehicle: saline 91 % of control

CC1CN1CC(O)C(O)CN1CC1C (stereo unspecified)
active: dose: 0.78 mg/kg/injection, schedule: Q01DX009 (ip), vehicle: saline 165 % of control | dose: 0.78 mg/kg/injection, schedule: Q04DX003 (ip), vehicle: saline 200 % of control | dose: 0.8 mg/kg/injection, schedule: Q01DX009 (ip), vehicle: saline with Tween-80 225 % of control | dose: 1.2 mg/kg/injection, schedule: Q01DX009 (ip), vehicle: saline with Tween-80 241 % of control | dose: 1.3 mg/kg/injection, schedule: Q04DX003 (ip), vehicle: saline 170 % of control | dose: 1.56 mg/kg/injection, schedule: Q01DX009 (ip), vehicle: saline 203 % of control | dose: 1.56 mg/kg/injection, schedule: Q04DX003 (ip), vehicle: saline 229 % of control and 181 % of control | dose: 1.8 mg/kg/injection, schedule: Q01DX009 (ip), vehicle: saline with Tween-80 250 % of control | dose: 2.0 mg/kg/injection, schedule: Q01DX009 (ip), vehicle: saline 250 % of control | dose: 3.0 mg/kg/injection, schedule: Q01DX009 (ip), vehicle: saline 250 % of control | dose: 3.12 mg/kg/injection, schedule: Q01DX009 (ip), vehicle: saline 203 % of control | dose: 3.12 mg/kg/injection, schedule: Q04DX003 (ip), vehicle: saline 222 % of control | dose: 3.3 mg/kg/injection, schedule: Q04DX003 (ip), vehicle: saline 236 % of control | dose: 4.5 mg/kg/injection, schedule: Q04DX003 (ip), vehicle: saline 200 % of control | dose: 5.0 mg/kg/injection, schedule: Q04DX003 (ip), vehicle: saline 295 % of control | [13] 231 % of control | dose: 6.6 mg/kg/injection, schedule: Q04DX003 (ip), vehicle: saline 259 % of control
inactive: dose: 0.09 mg/kg/injection, schedule: Q04DX003 (ip), vehicle: saline 100 % of control | dose: 0.19 mg/kg/injection, schedule: Q04DX003 (ip), vehicle: saline 103 % of control | [12] 95 % of control | dose: 10.0 mg/kg/injection, schedule: Q04DX003 (ip), vehicle: saline 86 % of control

S=P(Oc1ccccc1)(N1CC1)N1CC1
inactive: dose: 100.0 mg/kg/injection, schedule: Q01DX007 (ip), vehicle: DMSO 88 % of control | [9] 100 % of control | [10] 108 % of control | [14] 100 % of control

Cc1ccc(C(=O)CCCCl)cc1C
inactive: dose: 100.0 mg/kg/injection, schedule: Q04DX003 (ip), vehicle: saline with Tween-80 104 % of control | [5] 104 % of control | [6] 109 % of control

CN(C)CCCNC(=O)c1ccc2c(c1O)C(=O)c1ccccc1C2=O
inactive: [11] 118 % of control

COC(=O)C1OC(C)(C)OC1C(=O)OC (stereo unspecified)
inactive: [15] 90 % of control | [16] 97 % of control | [17] 90 % of control

CC[C@@]1(O)C[C@H](OC2CC(N(C)C)C(O)C(C)O2)c2c(cc3c(c2O)C(=O)c2c(O)ccc(O)c2C3=O)[C@H]1C(=O)OC (stereo partly specified)
active: dose: 20.0 mg/kg/injection, schedule: Q04DX003 (ip), vehicle: other 157 % of control

C=CC[Se]c1nc(N)nc2c1ncn2C1OC(CO)C(O)C1O (stereo unspecified)
inactive: [12] 105 % of control | [13] 100 % of control | dose: 12.5 mg/kg/injection, schedule: Q01DX009 (ip), vehicle: saline 111 % of control | dose: 12.5 mg/kg/injection, schedule: Q04DX003 (ip), vehicle: saline 100 % of control | dose: 25.0 mg/kg/injection, schedule: Q01DX009 (ip), vehicle: saline 100 % of control | dose: 25.0 mg/kg/injection, schedule: Q04DX003 (ip), vehicle: saline 95 % of control and 104 % of control | dose: 50.0 mg/kg/injection, schedule: Q04DX003 (ip), vehicle: saline 90 % of control | [18] 90 % of control

CC1(C)OC2C=CC3C(OC(=O)C3(C)Cl)C2O1 (stereo unspecified)
inactive: dose: 50.0 mg/kg/injection, schedule: Q04DX002 (ip), vehicle: saline with Tween-80 112 % of control and 114 % of control | [15] 99 % of control and 103 % of control and 104 % of control | [16] 103 % of control and 104 % of control | [17] 99 % of control and 101 % of control (2×)

COc1cc(/C=C2/CCCCC2=O)ccc1O
inactive: dose: 100.0 mg/kg/injection, schedule: Q01DX001 (ip), vehicle: other 104 % of control | dose: 200.0 mg/kg/injection, schedule: Q01DX001 (ip), vehicle: other 95 % of control | dose: 400.0 mg/kg/injection, schedule: Q01DX001 (ip), vehicle: other 104 % of control

CC(=O)O.[Pb]
inactive: dose: 12.5 mg/kg/injection, schedule: Q01DX009 (ip), vehicle: Klucel (hydroxypropylcellulose) (HPC) 109 % of control | [1] 109 % of control | [7] 90 % of control | [8] 90 % of control

Cc1c([N+](=O)[O-])c(C)c([N+](=O)[O-])c(C(C)(C)C)c1[N+](=O)[O-]
inactive: [2] 100 % of control | [9] 87 % of control | [3] 87 % of control | [10] 87 % of control | dose: 400.0 mg/kg/injection, schedule: Q01DX009 (ip), vehicle: Klucel (hydroxypropylcellulose) (HPC) 95 % of control | [14] 91 % of control

CC1=Nc2ccccc2NC(C)(C)C1
inactive: [18] 101 % of control | dose: 200.0 mg/kg/injection, schedule: Q04DX003 (ip), vehicle: saline 99 % of control | dose: 400.0 mg/kg/injection, schedule: Q04DX003 (ip), vehicle: saline 90 % of control
